These results are taken from patent US9163021B2, “Pyrrolo[3,2-c]pyridine tropomyosin-related kinase inhibitors” (Pfizer Limited, priority 2012, dated 2015).

Sequence of TRKA (P04629 441-796): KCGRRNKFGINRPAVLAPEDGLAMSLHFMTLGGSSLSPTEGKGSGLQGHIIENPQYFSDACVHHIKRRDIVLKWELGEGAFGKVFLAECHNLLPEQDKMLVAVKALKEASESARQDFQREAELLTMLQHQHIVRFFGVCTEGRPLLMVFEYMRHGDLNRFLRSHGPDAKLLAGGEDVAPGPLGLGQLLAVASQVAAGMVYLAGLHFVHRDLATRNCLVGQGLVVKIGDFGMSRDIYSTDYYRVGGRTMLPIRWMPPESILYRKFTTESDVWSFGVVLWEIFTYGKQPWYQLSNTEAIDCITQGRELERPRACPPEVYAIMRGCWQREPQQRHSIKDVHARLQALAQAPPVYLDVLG

The target in the test is TRKA (Homo sapiens (Human), UniProt P04629). The test can be described thus: Isolated TRK enzyme assay (HTRF KinEASE-TK), PV3144 TrkA enzyme assay. The class given is biochemical. The following applies: arithmetic mean where more than one reading. On the procedure:
Isolated TRK Enzyme assays use the HTRF KinEASE-TK kit (Cisbio Cat#62TK0PEJ) with recombinant His-tagged cytoplasmic domains of each TRK receptor sourced from Invitrogen (see table below). This activity-assay measures the phosphorylation of tyrosine residues within a substrate from the HTRF kit which has been validated by Cisbio for a variety of tyrosine kinases including the TRK receptors.
0.5 mM stock solutions of test compounds are prepared and serially diluted in 100% DMSO. A standard curve using the compound of Example 135 disclosed in WO2005/116035 of 150 uM is also prepared on each test plate. High percentage effect (HPE) is defined by 150 uM (using the compound of Example 135 as disclosed in WO2005/116035) and 0% effect (ZPE) is defined by 100% DMSO. Greiner low volume black plates containing 0.2 ul of serially diluted compound, standard and HPE/ZPE are created using the Bravo nanoliter dispenser.
1× enzyme buffer is prepared from 5× Enzymatic Buffer from the Cisbio KinEASE TK kit using MilliQ water. The buffer is then supplemented with 10 mM MgCI and 2 mM DTT (both from Sigma). In the case of TRKB, the buffer is also supplemented with 125 nM Supplement Enzymatic Buffer (SEB) from the Cisbio kit.
2× FAC of enzyme and 2× FAC ATP diluted in 1× complete enzyme buffer is incubated at room temperature for 20 minutes to preactivate the enzyme. Following this preactivation step, 5 ul/well of enzyme+ATP mix is added using a Multidrop Micro to the assay plate, spotted with 0.2 ul 100% DMSO compound. This is left for 20 mins at room temperature before adding 5 ul of 2 uM TK-substrate-Biotin (from the Cisbio kit) diluted in 1× enzyme buffer (1 uM FAC) using the Multidrop Micro. The reaction is incubated at room temperature for the optimized assay reaction time (see table). The reaction is stopped by adding 10 ul/well HTRF Detection Buffer containing 0.25 uM Streptavidin-XL665 (0.125 uM FAC) and 1:200 TK Antibody-Cryptate using a Multidrop.
After the Detection Reagent addition, plates are covered and incubated at room temperature for 60 minutes. HTRF signal is read using an Envision reader, measured as a ratio of emissions at two different wavelengths, 620 nm and 665 nm. […] Test compound data are expressed as percentage inhibition defined by HPE and ZPE values for each plate. Percentage inhibition in the presence of test compound is plotted against compound concentration on a log scale to determine an IC50 from the resultant sigmoid curve.
Where more than one reading was taken, the arithmetic mean is presented.
Background: TR-FRET usually uses a lanthanide donor and a delayed reading to cut background.
With `CC(CO)n1cc(C(=O)c2cncc(NC(=O)Cc3ccc(Cl)cc3)c2)c2cncc(F)c21` (single isomer, unassigned) [Example 206, 2-(4-chlorophenyl)-N-(5-{[7-fluoro-1-(1-hydroxypropan-2-yl)-1H-pyrrolo[3,2-c]pyridin-3-yl]carbonyl}pyridin-3-yl)acetamide], half-maximal inhibition (IC50) was put at 20.7 nM.
On to `CC(CO)n1cc(C(=O)c2cc(NC(=O)Cc3cccc(C(F)(F)F)c3)ccn2)c2cnccc21` (single isomer, unassigned) [Example 229, N-(2-{[1-(1-hydroxypropan-2-yl)-1H-pyrrolo[3,2-c]pyridin-3-yl]carbonyl}pyridin-4-yl)-2-[3-(trifluoromethyl)phenyl]acetamide], for which the half-maximal inhibitory concentration (IC50) (commonly the concentration that gives 50% inhibition) amounted to 200 nM. This IC50 lies about 9.7-fold higher than the previous one.
For the compound `CC(C)n1cc(C(=O)c2cncc(NC(=O)Cc3ccccc3Cl)c2)c2cnccc21` [Example 100, 2-(2-chlorophenyl)-N-(5-{[1-(propan-2-yl)-1H-pyrrolo[3,2-c]pyridin-3-yl]carbonyl}pyridin-3-yl)acetamide], 2370 nM corresponded to half-maximal inhibition (IC50).
`CC(CO)n1cc(C(=O)c2cncc(NC(=O)Cc3ccc(C(F)(F)F)cc3)c2)c2cncc(F)c21` (single isomer, unassigned) [Example 224, N-(5-{[7-fluoro-1-(1-hydroxypropan-2-yl)-1H-pyrrolo[3,2-c]pyridin-3-yl]carbonyl}pyridin-3-yl)-2-[4-(trifluoromethyl)phenyl]acetamide]: it took 15.4 nM to reach half-maximal inhibition (IC50).
As to `CC(CO)n1cc(C(=O)c2cncc(NC(=O)Cc3ccc(C#N)cc3)c2)c2cnccc21` (centres unmarked) [Example 67], inhibition was half-maximal at 101 nM (IC50).
Regarding `CC(C)n1cc(C(=O)c2ccnc(NC(=O)Cn3cc(C(C)(C)O)nn3)c2)c2cnccc21` [Example 188], inhibition was half-maximal at 477 nM (IC50). This IC50 is about 4.7-fold higher than that of the compound before.
Take “2-(3-methoxyphenyl)-N-(5-{[1-(propan-2-yl)-1H-pyrrolo[3,2-c]pyridin-3-yl]carbonyl}pyridin-3-yl)acetamide [Example 129]”: half-maximal inhibition (IC50) required 96.2 nM.
The compound `CC(C)n1cc(C(=O)c2cncc(NC(=O)Cc3ccc(F)cn3)c2)c2cncc(F)c21` [Example 88, N-(5-{[7-fluoro-1-(propan-2-yl)-1H-pyrrolo[3,2-c]pyridin-3-yl]carbonyl}pyridin-3-yl)-2-(5-fluoropyridin-2-yl)acetamide] registered an IC50 of 68.4 nM.
Take `CC(C)c1cn(CC(=O)Nc2cncc(C(=O)c3cn(C(C)(C)CO)c4ccncc34)c2)nn1` [Example 14, N-(5-{[1-(1-hydroxy-2-methylpropan-2-yl)-1H-pyrrolo[3,2-c]pyridin-3-yl]carbonyl}pyridin-3-yl)-2-[4-(propan-2-yl)-1H-1,2,3-triazol-1-yl]acetamide]: the IC50 came out at 9.89 nM.
Under `CC(C)n1cc(C(=O)c2ccnc(NC(=O)Cn3cnnn3)c2)c2cnccc21` [Example 170, N-(4-{[1-(propan-2-yl)-1H-pyrrolo[3,2-c]pyridin-3-yl]carbonyl}pyridin-2-yl)-2(1H-tetrazol-1-yl)acetamide] stands 6510 nM.
Compound `Cc1cc(C(F)(F)F)nn1CC(=O)Nc1cc(C(=O)c2cn(CCO)c3ccncc23)ccn1` [Example 153, N-(4-{[1-(2-hydroxyethyl)-1H-pyrrolo[3,2-c]pyridin-3-yl]carbonyl}pyridin-2-yl)-2-[5-methyl-3-(trifluoromethyl)-1H-pyrazol-1-yl]acetamide] came in with an IC50 of 83.9 nM.
`CC(C)(CO)n1cc(C(=O)c2cncc(NC(=O)Cn3cc(C(F)(F)F)nn3)c2)c2cncc(F)c21` [Example 94, N-(5-{[7-fluoro-1-(1-hydroxy-2-methylpropan-2-yl)-1H-pyrrolo[3,2-c]pyridin-3-yl]carbonyl}pyridin-3-yl)-2-[4-(trifluoromethyl)-1H-1,2,3-triazol-1-yl]acetamide] yielded a 50% inhibitory concentration (IC50) of 20 nM.
For the compound `CC(C)n1cc(C(=O)c2ccnc(NC(=O)Cc3ccc(Cl)cn3)c2)c2cnccc21` [Example 82, 2-(5-chloropyridin-2-yl)-N-(4-{[1-(propan-2-yl)-1H-pyrrolo[3,2-c]pyridin-3-yl]carbonyl}pyridin-2-yl)acetamide], the concentration for half-maximal inhibition (IC50) came to 6.16 nM.
The compound `CC(C)n1cc(C(=O)c2cc(NC(=O)Cn3ccc(C4CC4)n3)ccn2)c2cnccc21` [Example 29, 2-(3-cyclopropyl-1H-pyrazol-1-yl)-N-(2-{[1-(propan-2-yl)-1H-pyrrolo[3,2-c]pyridin-3-yl]carbonyl}pyridin-4-yl)acetamide] displayed an IC50 of 106 nM. This IC50 is about 17-fold higher than that of the compound before.
Compound `CC(C)n1cc(C(=O)c2ccnc(NC(=O)Cc3ccccc3Cl)c2)c2cnccc21` [Example 105, 2-(2-chlorophenyl)-N-(4-{[1-(propan-2-yl)-1H-pyrrolo[3,2-c]pyridin-3-yl]carbonyl}pyridin-2-yl)acetamide] gave an IC50 of 108 nM.
To `CC(C)n1cc(C(=O)c2cc(NC(=O)Cn3cc(C4CC4)nn3)ccn2)c2cnccc21` [Example 52, 2-(4-cyclopropyl-1H-1,2,3-triazol-1-yl)-N-(2-{[1-(propan-2-yl)-1H-pyrrolo[3,2-c]pyridin-3-yl]carbonyl}pyridin-4-yl)acetamide] belongs 137 nM; to `Cc1ccn(CC(=O)Nc2cncc(C(=O)c3cn(C(C)C)c4ccncc34)c2)n1` [Example 134, 2-(3-methyl-1H-pyrazol-1-yl)-N-(5-{[1-(propan-2-yl)-1H-pyrrolo[3,2-c]pyridin-3-yl]carbonyl}pyridin-3-yl)acetamide], 284 nM; to `CC(C)n1cc(C(=O)c2ccnc(NC(=O)Cc3nnnn3C)c2)c2cnccc21` [Example 192, 2-(1-methyl-1H-tetrazol-5-yl)-N-(4-{[1-(propan-2-yl)-1H-pyrrolo[3,2-c]pyridin-3-yl]carbonyl}pyridin-2-yl)acetamide], 9800 nM.
On to `Cc1cc(C(F)(F)F)nn1CC(=O)Nc1cncc(C(=O)c2cn(C(C)CO)c3c(F)cncc23)c1` (single isomer, unassigned) [Example 228, N-(5-{[7-fluoro-1-(1-hydroxypropan-2-yl)-1H-pyrrolo[3,2-c]pyridin-3-yl]carbonyl}pyridin-3-yl)-2-[5-methyl-3-(trifluoromethyl)-1H-pyrazol-1-yl]acetamide], for which half-maximal inhibition (IC50) was put at 18.5 nM.
For `CC(C)n1cc(C(=O)c2ccnc(NC(=O)Cc3cncs3)c2)c2cnccc21` [Example 185, N-(4-{[1-(propan-2-yl)-1H-pyrrolo[3,2-c]pyridin-3-yl]carbonyl}pyridin-2-yl)-2(1,3-thiazol-5-yl)acetamide], the 50% inhibitory concentration (IC50) worked out at 1860 nM. Against the preceding compound, the IC50 is about 100-fold higher.
To `CC(C)n1cc(C(=O)c2ccnc(NC(=O)Cc3cccc(OC(F)(F)F)c3)c2)c2cnccc21` [Example 191, N-(4-{[1-(propan-2-yl)-1H-pyrrolo[3,2-c]pyridin-3-yl]carbonyl}pyridin-2-yl)-2-[3-(trifluoromethoxy)phenyl]acetamide] belongs 7.41 nM; to `Cc1cnn(CC(=O)Nc2cncc(C(=O)c3cn(C(C)C)c4ccncc34)c2)c1` [Example 25, 2-(4-methyl-1H-pyrazol-1-yl)-N-(5-{[1-(propan-2-yl)-1H-pyrrolo[3,2-c]pyridin-3-yl]carbonyl}pyridin-3-yl)acetamide], 21.4 nM.
In the case of `CC(C)(CO)n1cc(C(=O)c2cncc(NC(=O)Cc3cccc(C(F)(F)F)c3)c2)c2cnccc21` [Example 235, N-(5-{[1-(1-hydroxy-2-methylpropan-2-yl)-1H-pyrrolo[3,2-c]pyridin-3-yl]carbonyl}pyridin-3-yl)-2-[3-(trifluoromethyl)phenyl]acetamide], the IC50 amounted to 2.87 nM.
Take `CC(C)n1cc(C(=O)c2cncc(NC(=O)Cc3cccc(Cl)c3)c2)c2cnccc21` [Example 125, 2-(3-chlorophenyl)-N-(5-{[1-(propan-2-yl)-1H-pyrrolo[3,2-c]pyridin-3-yl]carbonyl}pyridin-3-yl)acetamide]: the IC50 came out at 707 nM. Against the preceding compound, the IC50 is about 250-fold higher.
With `Cc1nc(C)n(CC(=O)Nc2cncc(C(=O)c3cn(C(C)C)c4ccncc34)c2)n1` [Example 137, 2-(3,5-dimethyl-1H-1,2,4-triazol-1-yl)-N-(5-{[1-(propan-2-yl)-1H-pyrrolo[3,2-c]pyridin-3-yl]carbonyl}pyridin-3-yl)acetamide], the IC50 was found to be 9800 nM.
To `CC(C)n1cc(C(=O)c2cncc(NC(=O)Cn3ccc(C4CC4)n3)c2)c2cncc(F)c21` [Example 90, 2-(3-cyclopropyl-1H-pyrazol-1-yl)-N-(5-{[7-fluoro-1-(propan-2-yl)-1H-pyrrolo[3,2-c]pyridin-3-yl]carbonyl}pyridin-3-yl)acetamide] belongs 19.6 nM.
